Laboratory results published in US20100113347A1 (priority 2007, published 2010).

Experiments:
[1] = test system: mice with alloxan diabetes; assay: Blood glucose level in mice with alloxan diabetes (Example 1); assay type: in vivo; settings: exenatide 7.5 mcg/kg
Description: (§1) Diabetes was induced in white mice by a single intraperitoneal administration of alloxan in a dose of 135 mg/kg. […] Control animals received injections of saline solution. By day 31 of the experiment, the levels of blood glucose and cholesterol were measured after an overnight fast. Data are presented as a mean±standard deviation (n=5) of the measured levels of glucose or cholesterol. […] To determine the therapeutic effect of lowering the level of glucose, the following formula was used:
ΔGlucose=Glucosemedication−Glucosecontrol.
(§2) Statistical differences of the obtained results were assessed with the use of Student's t-test.

[2] = test system: mice with alloxan diabetes; assay: Blood cholesterol level in mice with alloxan diabetes (Example 1); assay type: in vivo; settings: exenatide 7.5 mcg/kg
Description: as §1, with “used: […]” for “used:”
To determine the therapeutic effect of lowering the level of cholesterol, the following formula was used:
ΔCholesterol=Cholesterolmedication−Cholesterolcontrol.
as §2

[3] = day 31, after overnight fast, s.c. twice daily for 30 days, dalargin 8.8 mcg/kg
[4] = day 31, after overnight fast, s.c. twice daily for 30 days, dalargin 8.8 mcg/kg, mean±SD, n=5
[5] = dalargin 8.8 mcg/kg s.c. twice daily for 30 days

Substance: tirozil-2-alanil-glycil-phenylalanyl-leucil-arginine [Dalargin]
- Δ Glucose (Glucose medication − Glucose control) [1, 3]: -0.9 mmol/L
- Glucose [1, 4]: 10.6 ± 1.3 mmol/L
- effect on blood glucose levels after an overnight fast (in words) [1, 5]: inefficient
- Δ Cholesterol (Cholesterol medication − Cholesterol control) [2, 3]: -0.27 mmol/L
- Cholesterol [2, 4]: 2.34 ± 0.16 mmol/L
- effect on blood cholesterol after an overnight fast (in words) [2, 5]: inefficient
